Each structure is given as a SMILES string.

As usually defined, the IC50 is the midpoint of a concentration-inhibition curve. A low value points to inhibition by little substance.

The target of one assay is PLK3 (Homo sapiens, UniProt Q9H4B4). Nature of the assay: kinase inhibition IC50. In kind it is biochemical.
A further assay has as its target PLK1 (Homo sapiens, UniProt P53350). Nature of the assay: kinase inhibition IC50. The assay is classed as biochemical.

Chain of PLK3 (Q9H4B4 whole entry): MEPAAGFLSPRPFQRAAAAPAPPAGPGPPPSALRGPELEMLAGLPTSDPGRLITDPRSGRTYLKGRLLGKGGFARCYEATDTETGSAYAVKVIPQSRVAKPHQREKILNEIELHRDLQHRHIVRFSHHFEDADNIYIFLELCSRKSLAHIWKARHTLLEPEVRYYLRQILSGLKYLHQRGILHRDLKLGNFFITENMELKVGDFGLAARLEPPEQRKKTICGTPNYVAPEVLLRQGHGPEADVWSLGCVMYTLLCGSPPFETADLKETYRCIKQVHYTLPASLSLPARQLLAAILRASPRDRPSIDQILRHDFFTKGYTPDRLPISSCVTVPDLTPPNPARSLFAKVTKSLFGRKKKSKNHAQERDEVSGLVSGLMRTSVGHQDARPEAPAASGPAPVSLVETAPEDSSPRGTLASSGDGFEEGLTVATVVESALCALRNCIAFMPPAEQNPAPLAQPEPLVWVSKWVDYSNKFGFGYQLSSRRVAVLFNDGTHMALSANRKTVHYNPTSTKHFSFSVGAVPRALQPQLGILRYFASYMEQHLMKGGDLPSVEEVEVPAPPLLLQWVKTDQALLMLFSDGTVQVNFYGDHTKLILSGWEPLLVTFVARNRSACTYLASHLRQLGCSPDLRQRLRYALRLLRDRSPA
Chain of PLK1 (P53350 2-603): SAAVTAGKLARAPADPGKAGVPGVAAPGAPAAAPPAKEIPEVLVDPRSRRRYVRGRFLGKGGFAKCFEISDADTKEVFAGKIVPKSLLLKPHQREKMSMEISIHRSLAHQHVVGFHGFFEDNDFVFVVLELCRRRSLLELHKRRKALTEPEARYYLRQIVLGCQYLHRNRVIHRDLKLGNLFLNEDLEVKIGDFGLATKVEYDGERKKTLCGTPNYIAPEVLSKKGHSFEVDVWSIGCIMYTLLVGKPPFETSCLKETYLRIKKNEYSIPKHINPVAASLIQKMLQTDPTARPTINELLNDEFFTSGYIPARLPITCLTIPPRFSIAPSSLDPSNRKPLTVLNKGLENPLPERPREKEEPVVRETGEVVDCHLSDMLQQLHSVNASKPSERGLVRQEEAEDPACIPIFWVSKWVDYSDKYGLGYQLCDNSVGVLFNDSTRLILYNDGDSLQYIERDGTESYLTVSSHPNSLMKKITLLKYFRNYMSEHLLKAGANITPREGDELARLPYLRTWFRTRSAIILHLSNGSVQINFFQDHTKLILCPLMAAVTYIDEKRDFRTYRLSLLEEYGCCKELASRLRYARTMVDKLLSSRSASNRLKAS

On to `CC[C@@H]1C(=O)N(C)c2cnc(Nc3ccc(C(=O)NC4CCC(N5C[C@@H](C)O[C@@H](C)C5)CC4)cc3OC)nc2N1C(C)C` (some centres unmarked) [BI 4834], for which the IC50 on PLK3 is 198 nM; on PLK1 it was 7.6 nM.

The values are drawn from PMC4206221 (Science signaling, 2011).
